Consider 25 molecules from BindingDB's records for doi:10.1016/j.bmcl.2020.127696 (National Institutes of Health, 2021).

Chain of D(1A) dopamine receptor (P21728 whole entry): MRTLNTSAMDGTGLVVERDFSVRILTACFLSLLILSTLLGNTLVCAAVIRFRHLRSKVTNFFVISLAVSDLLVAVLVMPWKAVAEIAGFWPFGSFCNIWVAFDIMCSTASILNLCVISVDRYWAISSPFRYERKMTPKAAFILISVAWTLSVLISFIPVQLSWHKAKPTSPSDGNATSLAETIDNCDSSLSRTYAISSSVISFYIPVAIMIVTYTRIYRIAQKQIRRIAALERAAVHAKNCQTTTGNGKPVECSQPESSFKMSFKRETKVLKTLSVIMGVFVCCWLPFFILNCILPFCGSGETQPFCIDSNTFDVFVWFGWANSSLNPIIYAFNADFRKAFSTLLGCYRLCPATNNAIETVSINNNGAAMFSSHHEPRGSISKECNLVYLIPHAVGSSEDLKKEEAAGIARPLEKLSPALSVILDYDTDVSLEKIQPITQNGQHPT

One test deals with D(1B) dopamine receptor (Homo sapiens, UniProt P21918). Put plainly: Positive allosteric modulator activity at human dopamine D5 receptor expressed in CHO-K1 cells assessed as potentiation of dopamine-induced beta-arrestin2 recruitment by measuring dopamine EC50 at 50 uM incubated for 90 mins by PathHunter assay (Rvb = 81.7 nM).
Chain of D(1B) dopamine receptor (P21918 whole entry): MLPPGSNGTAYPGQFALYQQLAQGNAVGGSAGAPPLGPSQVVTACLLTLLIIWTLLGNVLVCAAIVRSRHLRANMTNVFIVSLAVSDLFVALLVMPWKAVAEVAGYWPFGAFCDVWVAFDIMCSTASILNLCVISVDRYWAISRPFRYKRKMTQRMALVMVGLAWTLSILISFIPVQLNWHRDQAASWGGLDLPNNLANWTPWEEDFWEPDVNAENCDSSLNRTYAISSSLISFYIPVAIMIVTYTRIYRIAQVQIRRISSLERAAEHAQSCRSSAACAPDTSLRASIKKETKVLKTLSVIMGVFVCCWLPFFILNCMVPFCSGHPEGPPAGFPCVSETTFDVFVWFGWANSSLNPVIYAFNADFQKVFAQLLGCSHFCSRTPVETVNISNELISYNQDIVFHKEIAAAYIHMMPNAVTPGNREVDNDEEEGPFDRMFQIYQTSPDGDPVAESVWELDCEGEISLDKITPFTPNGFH
Take `Cn1c2ccccc2c(=O)c2c(=O)n(-c3ccc(Cl)cc3)c(C3CCCCC3)nc21`: the EC50 is 44 nM.
On to `COc1ccc(-n2c(C3CCCCC3)nc3c(c(=O)c4ccccc4n3C)c2=O)cc1`, for which the EC50 is 62 nM.
Still for that read-out and setting: the value for `Cn1c2ccccc2c(=O)c2c(=O)n(-c3ccc(Cl)cc3)c(C3CCCC3)nc21` was 43 nM.
With `Cc1ccc(-n2c(CC3CCCCC3)nc3c(c(=O)c4ccccc4n3C)c2=O)cc1`, the EC50 was 168 nM.
For `Cn1c2ccccc2c(=O)c2c(=O)[nH]c(C3CCCC3)nc21`, the 50% effective concentration (EC50) amounted to 82 nM.
As to `Cn1c2ccccc2c(=O)c2c(=O)n(-c3ccccc3)c(C3CC3)nc21`, the EC50 turned out to be 95 nM.
Still for that read-out and setting: the same measure for `Cn1c2ccccc2c(=O)c2c(=O)n(-c3cccc(Cl)c3)c(C3CCCCC3)nc21`: 80 nM; for `COc1ccc(-n2c(CC(C)C)nc3c(c(=O)c4ccccc4n3C)c2=O)cc1Cl`: 58 nM.
Regarding `Cn1c2ccccc2c(=O)c2c(=O)n(-c3cccc(Cl)c3)c(C3CCCC3)nc21`, the concentration for a half-maximal effect (EC50) was determined as 43 nM.
Turning to `Cn1c2ccccc2c(=O)c2c(=O)n(-c3ccccc3)c(C3CCCC3)nc21`, the EC50 is 80 nM.
On to `Cn1c2ccccc2c(=O)c2c(=O)n(-c3ccccc3)c(C3CCCCC3)nc21`, for which the EC50 is 29 nM.
On the same count and under the same terms, the same measure for `COc1ccc(-n2c(CC(C)C)nc3c(c(=O)c4ccccc4n3C)c2=O)cc1`: 34 nM.
For `Cn1c2ccccc2c(=O)c2c(=O)n(-c3cccc(Cl)c3)c(CC3CCCCC3)nc21`, the EC50 is 95 nM.
The same measure, in the same setting: the value for `COc1ccc(-n2c(C3CCCC3)nc3c(c(=O)c4ccccc4n3C)c2=O)cc1Cl` was 28 nM; that for `COc1ccc(-n2c(C3CCCC3)nc3c(c(=O)c4ccccc4n3C)c2=O)cc1` was 25 nM; that for `COc1ccc(-n2c(C3CCCCC3)nc3c(c(=O)c4ccccc4n3C)c2=O)cc1Cl` was 59 nM.
`COc1ccc(-n2c(CC3CCCCC3)nc3c(c(=O)c4ccccc4n3C)c2=O)cc1Cl`: the EC50 came to 94 nM.
Consider `CC(C)Cc1nc2c(c(=O)c3ccccc3n2C)c(=O)n1-c1ccc(Cl)cc1`, for which the EC50 was found to be 56 nM.
The same measure, in the same setting: the same measure for `Cn1c2ccccc2c(=O)c2c(=O)n(-c3ccccc3)c(CC3CCCCC3)nc21`: 49 nM; for `Cc1ccc(-n2c(C3CCCC3)nc3c(c(=O)c4ccccc4n3C)c2=O)cc1`: 27 nM.
`Cc1ccc(-n2c(CC(C)C)nc3c(c(=O)c4ccccc4n3C)c2=O)cc1`: the concentration for a half-maximal effect (EC50) is 44 nM.
With `CC(C)Cc1nc2c(c(=O)c3ccccc3n2C)c(=O)n1-c1ccccc1`, the concentration giving a half-maximal response (EC50) worked out at 103 nM.
Turning to `Cn1c2ccccc2c(=O)c2c(=O)n(-c3ccc(Cl)cc3)c(CC3CCCCC3)nc21`, the half-maximal effective concentration (EC50) was found to be 74 nM.
In the case of `Cc1ccc(-n2c(C3CCCCC3)nc3c(c(=O)c4ccccc4n3C)c2=O)cc1`, the EC50 came out at 27 nM.
For the molecule `CC(C)Cc1nc2c(c(=O)c3ccccc3n2C)c(=O)n1-c1cccc(Cl)c1`, the EC50 was determined as 63 nM.

The next test addresses D(1A) dopamine receptor (Homo sapiens, UniProt P21728). Kind of test: Positive allosteric modulator activity at human dopamine D1 receptor expressed in HEK293 cells assessed as potentiation of dopamine-induced cAMP accumulation by measuring dopamine EC50 at 50 uM measured after 30 mins by HitHunter assay (Rvb = 214 nM).
For the molecule `Cn1c2ccccc2c(=O)c2c(=O)n(-c3ccccc3)c(C3CCCCC3)nc21`, the concentration for a half-maximal effect (EC50) is 123 nM.
